Experiment [1] deals with AMPK phosphorylation in human neural stem cells. In words: AMPK phosphorylation level by western blot. Format: cell-based. The conditions noted are these: Aβ 5 μM pre-treatment 30 minutes, PL201 30 PM, 72 hours. The procedure: The changes of mitochondrial function are closely related to the regulation of metabolism signaling including AMPK, which is also widely considered to be closely related to the pathogenesis of AD. In this example, the inventors have explored whether PL201 has an effect on metabolism signaling by detecting the level of AMPK phosphorylation in human neural stem cells via western blot.
Human neural stem cells (3 L) were cultured in DMEM/F12 (containing N2/B27 and 10 ng/ml bFGF), plated to 12 well plates and cultured for 24 hours, then Aβ (5 μM) was added to pre-treat the cells for 30 minutes, and then PL201 ([…]) was added. After co-incubation for 72 hours, the cells were washed with PBS and lysed with Laemmli's sample buffer, then SDS PAGE electrophoresis was performed to detect associated protein bands with rabbit anti-phospo-AMPK and total AMPK antibody.
A general note: Immunoblotting shows a protein as a band on a membrane.

For experiment [2], the system named is AD mice. The experiment is described as follows: Aβ plaques in brain, thioflavin S staining. Format: in vivo, mouse. The settings on record: 10 mg/kg intragastrically, 90 days, vs control group. The procedure: The inventors conducted PL201 administration experiments on AD mice (5-6 months aged AD mice were selected). Each mouse was intragastrically administrated 100 μl PL201, and the dosage was 10 mg/kg mouse body weight. Moreover, mice in the control group were administrated 100 μl water once daily for 90 days, and from Day 60 were intraperitoneally injected with 5-bromo-2′-deoxyuridine (BrdU) of 50 mg/kg mouse body weight once daily for 7 days. After 90 days of administration, the mice were perfused with PFA after anesthesia, and the whole brain was taken for further experiments.
The inventors performed frozen sectioning coronally with a thickness of 30 μm on the whole brain sample of AD mice after administration in example 2, and the slices were stained with thioflavin S and DAPI. The stained brain slices were then photographed with Olympus FV100i or Leica SP-8.

Experiment [3] relates to MPTP mice model. In words: TH immunohistochemistry of substantia nigra and striatum, MPTP model. The settings on record: PL201+MPTP vs NS+MPTP group, Day 7 after MPTP modeling. In kind it is in vivo, mouse. The procedure: (§1) The mice were randomly divided into 4 groups: a group in which the mice was administrated with normal saline (NS), a MPTP model group in which the mice was intragastrical administrated with normal saline (NS+MPTP), a group in which the mice was intragastrical administrated with 50 mg of compound PL201 (PL201), and a MPTP model group in which the mice was intragastrical administrated with compound PL201 (PL201+MPTP).
(§2) 11 animals were set in the group in which the mice was administrated with normal saline (NS), 14 animals were set in the MPTP model group in which the mice was intragastrical administrated with normal saline (NS+MPTP), 4 animals were set in the group in which the mice was intragastrically administrated with 50 mg of compound PL201 (PL201), 15 animals were set in the MPTP model group in which the mice was intragastrically administrated with the compound PL201 (PL201+MPTP).
The administration started on the day of animal grouping: mice in the NS and the NS+MPTP group were intragastrically administrated with normal saline, and mice in the other two groups were administrated with compound PL201 once a day for 7 consecutive days. From Day 7, mice in the NS and the PL201 group were intraperitoneally injected with 5 ml/kg normal saline, while mice in the NS+MPTP and the PL201+MPTP group were intraperitoneally injected with 25 mg/kg of MPTP once a day for a total of 5 days. […]

In experiment [4] the test system is MPTP mice model. In words: Striatal dopaminergic nerve fibers, TH western blot, MPTP model. The settings on record: PL201+MPTP vs NS+MPTP group, Day 7 after MPTP modeling. Format: in vivo, mouse. The procedure: as §1, §2
The administration started on the day of animal grouping: mice in the NS and the NS+MPTP group were administrated with normal saline, and mice in the other two groups were administrated with compound PL201 once a day for 7 consecutive days. […]
On Day 7 after MPTP modeling, animals in each group were anesthetized with 10% chloral hydrate. […] The fluorescence signal was detected by Odyssey near-infrared fluorescence scanner and made statistics.

The structures appear in SMILES notation.

With `COc1cc(/C=C/C(=O)OC2OC(C)C(O)C(O)C2O)ccc1O` [PL201, (α-L-rhamnopyranosyl) ferulic acid ester], the AMPK phosphorylation level result in experiment [1] is recorded as “reduced the extent of this decline”. In addition, the “Aβ plaques in brain” value in experiment [2] is recorded as “less Aβ plaques”. Moreover, in experiment [3], the “level of striatal dopaminergic nerve fibers (TH immunohistochemistry, mean optical density)” value is “significantly increased” and the “number of dopaminergic neurons in substantia nigra (TH positive cells)” value was “significantly increased”. The “level of striatal dopaminergic nerve fibers (TH western blot)” value in experiment [4] is “significantly increased”.
